Some test systems named below: LXFL 529 NSCLC; HOP-18 NSCLC; M19-MEL melanoma; DMS 273 small cell lung; RXF-631 renal; SNB-78 CNS; MDA-MB-435; DU-145 prostate; MDA-N.
What all share (assay): NCI tumour cell line growth inhibition, 48 h

Where “and” joins values, the source holds several entries; their conditions need not be identical. Identical values can stand only once.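 Dose response: 5 concentrations. Exposure: 48 h. Format: 96-well plates. Endpoint: linear interpolation; highest concentration if not reached. The concentration for 50% growth inhibition is given as GI50. TGI marks complete inhibition of growth.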

For the compound `Cc1ccc(C2=C(c3ccccc3)C(Br)(c3ccc(C)cc3)C(c3ccccc3)=C2c2ccc(C)cc2)cc1`, the TGI with LXFL 529 NSCLC, with HOP-18 NSCLC, in the assay on M19-MEL melanoma, in the assay with DMS 273 small cell lung, in the assay on RXF-631 renal and with SNB-78 CNS was over 100 µM in each case.

Turning to `CC(C)(C)c1ccc2c(c1)S(=O)(=O)Nc1ccccc1NS(=O)(=O)c1cc(C(C)(C)C)ccc1OCCOCCOCCO2`, the TGI with HOP-18 NSCLC, with M19-MEL melanoma, with DMS 273 small cell lung, in the assay with RXF-631 renal and with SNB-78 CNS was over 100 µM each time.

`CC(=O)/C(C)=N/NC(=O)c1ccccc1O`: the TGI was over 10 µM in the assay on LXFL 529 NSCLC; over 10 µM in the assay with HOP-18 NSCLC; over 10 µM in the assay on M19-MEL melanoma; over 10 µM with DMS 273 small cell lung; over 100 µM in the assay on MDA-MB-435; over 10 µM with RXF-631 renal. Besides, the TGI in the assay on SNB-78 CNS is over 10 µM; with DU-145 prostate, over 100000 nM; in the assay on MDA-N, over 100 µM.

Turning to `COc1cc2c(c(OC)c1OC)-c1ccc(OC)c(=O)cc1[C@@H](NC(=O)c1ccccc1)CC2`, the TGI with LXFL 529 NSCLC is over 100 µM; with HOP-18 NSCLC it was over 100 µM; in the assay with M19-MEL melanoma, over 100 µM; in the assay on MDA-MB-435 it was under 0.003 µM; in the assay on RXF-631 renal, over 48.3 µM; with SNB-78 CNS it was 38.7 µM. The TGI in the assay on DU-145 prostate is 32.9 nM and 237 nM; in the assay on MDA-N it was under 0.003 µM. Moreover, the GI50 in the assay on MDA-MB-435, with DU-145 prostate and in the assay on MDA-N was under 3 nM each time.

Consider `C[C@@H]1CC(=O)C2CCCC1C2=O` (some centres undefined), for which the TGI in the assay with LXFL 529 NSCLC, with HOP-18 NSCLC, in the assay on M19-MEL melanoma, with DMS 273 small cell lung, in the assay on RXF-631 renal and in the assay with SNB-78 CNS was over 100 µM throughout.

With `CCOc1ccccc1NC(=O)CC(C(=O)OC)C(=O)C(=O)OC` (centres undefined), the TGI with LXFL 529 NSCLC, with HOP-18 NSCLC, in the assay with M19-MEL melanoma, in the assay on DMS 273 small cell lung, in the assay on RXF-631 renal and in the assay with SNB-78 CNS was over 100 µM in each case.

As for `COc1ccc(C(=O)C(C(=O)CCC(=O)Nc2cccc(Cl)c2)c2ccc(OC)cc2)cc1` (centres undefined), the TGI in the assay with LXFL 529 NSCLC, with HOP-18 NSCLC, with M19-MEL melanoma, in the assay with DMS 273 small cell lung and with RXF-631 renal was over 100 µM throughout.

Take `Cc1nc(N)sc1C(=O)/C=C\c1ccc2c(c1)OCO2`: the TGI in the assay with LXFL 529 NSCLC, with HOP-18 NSCLC, in the assay on M19-MEL melanoma, with DMS 273 small cell lung, in the assay with RXF-631 renal and with SNB-78 CNS was over 100 µM throughout.
